Assay results reported in patent US20220259193A1, “KCNT1 INHIBITORS AND METHODS OF USE” (Praxis Precision Medicines, Inc., priority 2019, published 2022).

Each molecule was assayed against T1, KCNT1 (KNa1.1, Slack) (Homo sapiens, UniProt Q5JUK3) (assay: KCNT1 patch clamp assay (SyncroPatch 384PE automated patch clamp)). Conditions: tetracycline inducible HEK-TREX cell line; perforated patch; step from −80 mV to 0 mV; room temperature; read-out: KCNT1-WT IC50.
T1 construct: expressed in transfected cells; host or cells: HEK-TREX (tetracycline-inducible HEK cell line)
T1 sequence (Q5JUK3 1-1230): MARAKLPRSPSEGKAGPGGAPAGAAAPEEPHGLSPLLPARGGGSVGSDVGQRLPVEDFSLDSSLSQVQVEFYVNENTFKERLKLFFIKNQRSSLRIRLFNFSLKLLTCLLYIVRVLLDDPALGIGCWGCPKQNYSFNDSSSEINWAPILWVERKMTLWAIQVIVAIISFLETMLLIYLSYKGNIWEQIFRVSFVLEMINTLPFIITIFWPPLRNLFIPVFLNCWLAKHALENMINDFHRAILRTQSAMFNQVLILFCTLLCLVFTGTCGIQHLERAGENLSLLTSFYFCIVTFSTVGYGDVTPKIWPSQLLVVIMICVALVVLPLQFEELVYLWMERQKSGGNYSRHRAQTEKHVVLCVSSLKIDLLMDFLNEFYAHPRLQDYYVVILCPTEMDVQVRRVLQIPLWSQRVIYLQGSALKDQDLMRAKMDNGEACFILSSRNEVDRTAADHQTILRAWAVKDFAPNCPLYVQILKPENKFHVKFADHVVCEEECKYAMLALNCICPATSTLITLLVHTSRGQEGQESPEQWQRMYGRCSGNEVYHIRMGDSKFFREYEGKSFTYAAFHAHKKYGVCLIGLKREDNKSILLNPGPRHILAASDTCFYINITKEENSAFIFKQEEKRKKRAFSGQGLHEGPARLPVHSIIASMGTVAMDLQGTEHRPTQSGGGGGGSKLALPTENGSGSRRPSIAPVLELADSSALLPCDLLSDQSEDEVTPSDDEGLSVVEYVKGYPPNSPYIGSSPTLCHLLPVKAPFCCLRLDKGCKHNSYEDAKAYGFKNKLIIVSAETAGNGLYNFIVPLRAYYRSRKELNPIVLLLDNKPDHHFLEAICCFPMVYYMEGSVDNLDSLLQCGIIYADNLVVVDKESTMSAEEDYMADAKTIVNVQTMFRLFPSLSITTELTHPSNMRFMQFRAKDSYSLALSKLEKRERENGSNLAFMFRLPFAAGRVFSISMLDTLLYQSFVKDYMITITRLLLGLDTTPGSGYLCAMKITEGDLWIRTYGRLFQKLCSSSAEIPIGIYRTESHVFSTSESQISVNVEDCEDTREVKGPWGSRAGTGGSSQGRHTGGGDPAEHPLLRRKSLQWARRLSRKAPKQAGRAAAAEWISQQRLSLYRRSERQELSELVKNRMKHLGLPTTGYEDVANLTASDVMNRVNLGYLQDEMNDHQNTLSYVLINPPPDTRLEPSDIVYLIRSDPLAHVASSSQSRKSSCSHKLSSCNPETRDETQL
Format: cell-based
Procedure, shortened: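 Tetracycline-inducible HEK-TREX cells; perforated-patch (10 μM escin) population recordings at room temperature, holding −80 mV with 100 ms step to 0 mV.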

| Structure (SMILES) | IC50 [nM] |
| --- | --- |
| CC(C)Oc1cc(-c2noc([C@H](C)NC(=O)c3cc(C(F)(F)F)nn3C)n2)ccn1 [Compound 201, (S)—N-(1-(3-(2-isopropoxypyridin-4-yl)-1,2,4-oxadiazol-5-yl)ethyl)-1-methyl-3-(trifluoromethyl)-1H-pyrazole-5-carboxamide] | ≤ 1000 |
| C[C@H](NC(=O)c1cc(C(F)(F)F)nn1C)c1nc(-c2ccnc(OC3CC3)c2)no1 [Compound 207, (S)—N-(1-(3-(2-cyclopropoxypyridin-4-yl)-1,2,4-oxadiazol-5-yl)ethyl)-1-methyl-3-(trifluoromethyl)-1H-pyrazole-5-carboxamide] | ≤ 1000 |
| C[C@H](NC(=O)c1cc(C(F)(F)F)nn1C)c1nc(-c2ccnc(OC3CC(F)(F)C3)c2)no1 [Compound 208, (S)—N-(1-(3-(2-(3,3-difluorocyclobutoxy)pyridin-4-yl)-1,2,4-oxadiazol-5-yl)ethyl)-1-methyl-3-(trifluoromethyl)-1H-pyrazole-5-carboxamide] | ≤ 1000 |
| C[C@H](NC(=O)c1cc(C(F)(F)F)nn1C)c1nc(-c2ccnc(OCC(F)F)c2)no1 [Compound 211, (S)—N-(1-(3-(2-(2,2-difluoroethoxy)pyridin-4-yl)-1,2,4-oxadiazol-5-yl)ethyl)-1-methyl-3-(trifluoromethyl)-1H-pyrazole-5-carboxamide] | ≤ 1000 |
| COC1CN(c2cc(-c3noc([C@H](C)NC(=O)c4cc(C(F)(F)F)nn4C)n3)ccn2)C1 [Compound 213, (S)—N-(1-(3-(2-(3-methoxyazetidin-1-yl)pyridin-4-yl)-1,2,4-oxadiazol-5-yl)ethyl)-1-methyl-3-(trifluoromethyl)-1H-pyrazole-5-carboxamide] | 1000 to 20000 |
| C[C@H](NC(=O)c1cc(C(F)(F)F)nn1C)c1nc(-c2ccnc(OCC3CC3)c2)no1 [Compound 214, (S)—N-(1-(3-(2-(cyclopropylmethoxy)pyridin-4-yl)-1,2,4-oxadiazol-5-yl)ethyl)-1-methyl-3-(trifluoromethyl)-1H-pyrazole-5-carboxamide] | ≤ 1000 |
| C[C@H](NC(=O)c1cc(C(F)(F)F)nn1C)c1nc(-c2ccnc(N3CC(F)(F)C3)c2)no1 [Compound 222, (S)—N-(1-(3-(2-(3,3-difluoroazetidin-1-yl)pyridin-4-yl)-1,2,4-oxadiazol-5-yl)ethyl)-1-methyl-3-(trifluoromethyl)-1H-pyrazole-5-carboxamide] | ≤ 1000 |
| CC(C)Oc1cc(-c2noc([C@H](C)NC(=O)c3cc(C(F)(F)F)nn3CC(=O)N(C)C)n2)ccn1 [Compound 224, (S)-1-(2-(dimethylamino)-2-oxoethyl)-N-(1-(3-(2-isopropoxypyridin-4-yl)-1,2,4-oxadiazol-5-yl)ethyl)-3-(trifluoromethyl)-1H-pyrazole-5-carboxamide] | ≤ 1000 |
| C[C@H](NC(=O)c1cc(C(F)(F)F)nn1CC(=O)N(C)C)c1nc(-c2ccnc(C3CC3)c2)no1 [Compound 230, (S)—N-(1-(3-(2-cyclopropylpyridin-4-yl)-1,2,4-oxadiazol-5-yl)ethyl)-1-(2-(dimethylamino)-2-oxoethyl)-3-(trifluoromethyl)-1H-pyrazole-5-carboxamide] | ≤ 1000 |
| Cc1cccc(-c2noc([C@@H](C)NC(=O)c3cn(C(C)C)nc3C)n2)c1 [Compound 232, 1-isopropyl-3-methyl-N-[(1R)-1-[3-(m-tolyl)-1,2,4-oxadiazol-5-yl]ethyl]pyrazole-4-carboxamide] | ≥ 20000 |
| Cc1cccc(-c2noc([C@H](C)NC(=O)c3cn(C(C)C)nc3C)n2)c1 [Compound 233] | ≤ 1000 |
| C[C@H](NC(=O)c1cn(C)nc1C(F)F)c1nc(-c2ccnc(C(F)(F)F)c2)no1 [Compound 235] | ≤ 1000 |

More lines, now with the values ahead:

| IC50 [nM] | Structure (SMILES) |
| --- | --- |
| ≤ 1000 | CCOc1cc(-c2noc([C@H](C)NC(=O)c3cc(C(F)(F)F)nn3C)n2)ccn1 [Compound 205, (S)—N-(1-(3-(2-ethoxypyridin-4-yl)-1,2,4-oxadiazol-5-yl)ethyl)-1-methyl-3-(trifluoromethyl)-1H-pyrazole-5-carboxamide] |
| 1000 to 20000 | CC[C@H](NC(=O)c1ccnn1-c1ccccc1)c1nc(-c2ccnc(C)c2)no1 [Compound 215, (S)—N-(1-(3-(2-methylpyridin-4-yl)-1,2,4-oxadiazol-5-yl)propyl)-1-phenyl-1H-pyrazole-5-carboxamide] |
| ≤ 1000 | CC[C@H](NC(=O)c1ccnn1C1CCCC1)c1nc(-c2ccnc(C)c2)no1 [Compound 216, (S)-1-cyclopentyl-N-(1-(3-(2-methylpyridin-4-yl)-1,2,4-oxadiazol-5-yl)propyl)-1H-pyrazole-5-carboxamide] |
| 1000 to 20000 | CC[C@H](NC(=O)c1cc(C)nn1C1CCOCC1)c1nc(-c2ccnc(C)c2)no1 [Compound 217, (S)-3-methyl-N-(1-(3-(2-methylpyridin-4-yl)-1,2,4-oxadiazol-5-yl)propyl)-1-(tetrahydro-2H-pyran-4-yl)-1H-pyrazole-5-carboxamide] |
| ≤ 1000 | CC[C@H](NC(=O)c1cc(C)nn1-c1ccccc1)c1nc(-c2ccnc(C)c2)no1 [Compound 218, (S)-3-methyl-N-(1-(3-(2-methylpyridin-4-yl)-1,2,4-oxadiazol-5-yl)propyl)-1-phenyl-1H-pyrazole-5-carboxamide] |
| ≤ 1000 | CC[C@H](NC(=O)c1ccnn1Cc1ccccc1)c1nc(-c2ccnc(C)c2)no1 [Compound 219, (S)-1-benzyl-N-(1-(3-(2-methylpyridin-4-yl)-1,2,4-oxadiazol-5-yl)propyl)-1H-pyrazole-5-carboxamide] |
| ≤ 1000 | CC[C@H](NC(=O)c1cc(C(F)(F)F)nn1C(F)F)c1nc(-c2ccnc(C)c2)no1 [Compound 221, (S)-1-(difluoromethyl)-N-(1-(3-(2-methylpyridin-4-yl)-1,2,4-oxadiazol-5-yl)propyl)-3-(trifluoromethyl)-1H-pyrazole-5-carboxamide] |
| ≤ 1000 | CC(C)Oc1cc(-c2noc([C@H](C)NC(=O)c3cc(-c4ccc(F)cc4)nn3C)n2)ccn1 [Compound 223, (S)-3-(4-fluorophenyl)-N-(1-(3-(2-isopropoxypyridin-4-yl)-1,2,4-oxadiazol-5-yl)ethyl)-1-methyl-1H-pyrazole-5-carboxamide] |
| ≤ 1000 | CC[C@H](NC(=O)c1cc(-c2ccccc2)nn1C)c1nc(-c2ccnc(C)c2)no1 [Compound 226, (S)-1-methyl-N-(1-(3-(2-methylpyridin-4-yl)-1,2,4-oxadiazol-5-yl)propyl)-3-phenyl-1H-pyrazole-5-carboxamide] |
| ≤ 1000 | Cc1cc(C(=O)N[C@@H](C)c2nc(-c3ccnc(C4CC4)c3)no2)n(C)n1 [Compound 227, (S)—N-(1-(3-(2-cyclopropylpyridin-4-yl)-1,2,4-oxadiazol-5-yl)ethyl)-1,3-dimethyl-1H-pyrazole-5-carboxamide] |
| ≤ 1000 | C[C@H](NC(=O)c1cc(-c2ccc(F)cc2)nn1C)c1nc(-c2ccnc(C3CC3)c2)no1 [Compound 228, (S)—N-(1-(3-(2-cyclopropylpyridin-4-yl)-1,2,4-oxadiazol-5-yl)ethyl)-3-(4-fluorophenyl)-1-methyl-1H-pyrazole-5-carboxamide] |
| ≤ 1000 | C[C@H](NC(=O)c1cc(C(F)F)nn1C)c1nc(-c2ccnc(C3CC3)c2)no1 [Compound 229, (S)—N-(1-(3-(2-cyclopropylpyridin-4-yl)-1,2,4-oxadiazol-5-yl)ethyl)-3-(difluoromethyl)-1-methyl-1H-pyrazole-5-carboxamide] |
| 1000 to 20000 | CC[C@H](NC(=O)c1cc(C)nn1-c1cccnc1)c1nc(-c2ccnc(C)c2)no1 [Compound 231, (S)-3-methyl-N-(1-(3-(2-methylpyridin-4-yl)-1,2,4-oxadiazol-5-yl)propyl)-1-(pyridin-3-yl)-1H-pyrazole-5-carboxamide] |
| ≤ 1000 | CC[C@H](NC(=O)c1cc(C(F)(F)F)nn1C)c1nc(-c2ccnc(C(F)(F)F)c2)no1 [Compound 236, (S)-1-methyl-3-(trifluoromethyl)-N-(1-(3-(2-(trifluoromethyl)pyridin-4-yl)-1,2,4-oxadiazol-5-yl)propyl)-1H-pyrazole-5-carboxamide] |
